{
  "source": "patent US20100120867A1",
  "about": "“METHOD OF TREATMENT” (Novartis AG, priority 2007, published 2010)",
  "assay": "Multicenter, double-blind, randomized, placebo-controlled clinical study in subjects with frequent heartburn",
  "assay_type": "in vivo, human",
  "experimental": "A multicenter, double-blind, randomized, parallel group, placebo-controlled clinical study is carried out to investigate the safety and efficacy of lansoprazole, 15 mg (or alternatively 30 mg) once daily, in preventing frequent heartburn.\nThe trial population consists of subjects (male or female, at least 18 years old) with frequent heartburn, i.e. heartburn occurring a minimum of 2 or more days a week over the past month, that was untreated. A total of 576 subjects with frequent heartburn (288 per group) is randomized in order to yield 546 subjects.\nThe study population is divided equally between a treatment group receiving lansoprazole capsules, 15 mg (or alternatively, 30 mg) and a control group receiving placebo capsules. All statistical tests used to compare the two treatment groups are two-sided, with probability of Type I error=0.05.\nLansoprazole 15 mg (or alternatively, 30 mg) capsules or placebo are taken once daily for 14 days during the double blind treatment period.\nMost measures of efficacy are derived from data recorded in the subject's IVRS diary after a daily self-assessment. Subjects are given instructions to complete the IVRS diary in the morning for the previous 24-hour period on a daily basis for all phases of the study. The diary is designed to collect information on the occurrence of daytime and nighttime heartburn episodes, maximum heartburn severity, and rescue medication consumption for the previous 24 hours. In addition, the date and time of study medication consumption are recorded.\nTo classify heartburn severity, subjects are instructed to use the most intense episode of the 24-hour period according to the following Intensity Scale Definitions (Table 6):\nTherefore, the primary evaluation is the period between the first dose (Day 1) through the end of the double blind treatment period, i.e. Days 1-14 for 24-hour days. “No heartburn over 24 hours” on each of Days 1-14 is defined as the combined experience of daytime and nighttime heartburn. […]\nThis variable is analyzed as the percentage of nighttimes with the outcome of no nighttime heartburn. […]",
  "key": {"[1]": {"details": "14-day course of therapy, randomized treatment group"}},
  "data": [
    {"smiles": "Cc1c(OCC(F)(F)F)ccnc1C[S+]([O-])c1nc2ccccc2[nH]1", "note": "(stereo not drawn) [Lansoprazole]", "values": [
      {"measurement": "efficacy in the relief of frequent heartburn compared to placebo", "setting": "15 mg once daily, 14 days", "result": "superior in efficacy to placebo"},
      {"measurement": "proportion of 24-hour days substantially free of heartburn compared to placebo", "setting": "[1]", "result": "statistically significant increase"},
      {"measurement": "proportion of nighttimes substantially free of heartburn compared to placebo", "setting": "[1]", "result": "statistically significant increase"}
    ]}
  ]
}
